Read-outs that look alike come from different tables or passages of the source.
System: test plant species
Experiment: Post-emergent herbicidal activity test (greenhouse, foliar spray, visual growth reduction)
Format: in vivo
Details: post-emergence, 336 h, 140 g ai/ha
Summary of the method: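 Greenhouse plants at first–second true leaf stage sprayed overhead at 187 L/ha with compound in acetone/water/isopropanol/DMSO/crop oil/X-77 carrier; controls received solvent blank. Injury rated visually after 14 d on a 0–100% scale versus untreated and control plants, converted to growth reduction.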

[1] = ECHCG: barnyardgrass (Echinochloa crus-galli), 14 days after application, read-out: Visual Growth Reduction (%) 14 Days After Application, ECHCG
[2] = IPOHE: ivy-leaf morning glory (Ipomoea hederacea), 14 days after application, read-out: Visual Growth Reduction (%) 14 Days After Application, IPOHE
[3] = KCHSC: kochia (Bassia scoparia), 14 days after application, read-out: Visual Growth Reduction (%) 14 Days After Application, KCHSC
[4] = ORYSA: rice (Oryza sativa), 14 days after application, read-out: Visual Growth Reduction (%) 14 Days After Application, ORYSA
[5] = SETFA: giant foxtail (Setaria faberi), 14 days after application, read-out: Visual Growth Reduction (%) 14 Days After Application, SETFA
[6] = SORVU: grain sorghum (Sorghum vulgare), 14 days after application, read-out: Visual Growth Reduction (%) 14 Days After Application, SORVU
[7] = STEME: common chickweed (Stellaria media), 14 days after application, read-out: Visual Growth Reduction (%) 14 Days After Application, STEME
[8] = TRZAS: wheat, spring (Triticum aestivum), 14 days after application, read-out: Visual Growth Reduction (%) 14 Days After Application, TRZAS
[9] = blackgrass (Alopecurus myosuroides), 14 Days After Application, read-out: Visual Growth Reduction (%) ALOMY
[10] = canada thistle (Cirsium arvense), 14 Days After Application, read-out: Visual Growth Reduction (%) CIRAR
[11] = crabgrass (Digitaria sanguinalis), 14 Days After Application, read-out: Visual Growth Reduction (%) DIGSA
[12] = lambsquarters (Chenopodium album), 14 Days After Application, read-out: Visual Growth Reduction (%) CHEAL
[13] = redroot pigweed (Amaranthus retroflexus), 14 Days After Application, read-out: Visual Growth Reduction (%) AMARE
[14] = wild oat (Avena fatua), 14 Days After Application, read-out: Visual Growth Reduction (%) AVEFA
[15] = yellow nutsedge (Cyperus esculentus), 14 Days After Application, read-out: Visual Growth Reduction (%) CYPES
[16] = ALOMY: blackgrass (Alopecurus myosuroides), 14 days after application, read-out: Visual Growth Reduction (%) 14 Days After Application, ALOMY
[17] = AMARE: redroot pigweed (Amaranthus retroflexus), 14 days after application, read-out: Visual Growth Reduction (%) 14 Days After Application, AMARE
[18] = AVEFA: wild oat (Avena fatua), 14 days after application, read-out: Visual Growth Reduction (%) 14 Days After Application, AVEFA
[19] = CHEAL: lambsquarters (Chenopodium album), 14 days after application, read-out: Visual Growth Reduction (%) 14 Days After Application, CHEAL
[20] = CIRAR: canada thistle (Cirsium arvense), 14 days after application, read-out: Visual Growth Reduction (%) 14 Days After Application, CIRAR
[21] = CYPES: yellow nutsedge (Cyperus esculentus), 14 days after application, read-out: Visual Growth Reduction (%) 14 Days After Application, CYPES
[22] = DIGSA: crabgrass (Digitaria sanguinalis), 14 days after application, read-out: Visual Growth Reduction (%) 14 Days After Application, DIGSA

| SMILES | pest or weed control at 140 g/ha [1] [%] | pest or weed control at 140 g/ha [2] [%] | pest or weed control at 140 g/ha [3] [%] | pest or weed control at 140 g/ha [4] [%] | pest or weed control at 140 g/ha [5] [%] | pest or weed control at 140 g/ha [6] [%] | pest or weed control at 140 g/ha [7] [%] | pest or weed control at 140 g/ha [8] [%] | pest or weed control at 140 g/ha [9] [%] | pest or weed control at 140 g/ha [10] [%] | pest or weed control at 140 g/ha [11] [%] | pest or weed control at 140 g/ha [12] [%] | pest or weed control at 140 g/ha [13] [%] | pest or weed control at 140 g/ha [14] [%] | pest or weed control at 140 g/ha [15] [%] | pest or weed control at 140 g/ha [16] [%] | pest or weed control at 140 g/ha [17] [%] | pest or weed control at 140 g/ha [18] [%] | pest or weed control at 140 g/ha [19] [%] | pest or weed control at 140 g/ha [20] [%] | other results |
| --- | --- | --- | --- | --- | --- | --- | --- | --- | --- | --- | --- | --- | --- | --- | --- | --- | --- | --- | --- | --- | --- |
| COC(=O)c1nc(-c2ccc(F)cc2F)ccc1Cl [F268, Methyl 3-chloro-6-(2,4-difluorophenyl) picolinate] | 0 to 29 | 0 to 29 | 0 to 29 | 0 to 29 | 0 to 29 | 60 to 74 | 0 to 29 | 0 to 29 | 0 to 29 | 30 to 44 | 0 to 29 | 60 to 74 | 0 to 29 | 0 to 29 | 0 to 29 | – | – | – | – | – | – |
| COC(=O)c1nc(-c2cc3ncsc3cc2F)c(F)cc1Cl [F265, Methyl 3-chloro-5-fluoro-6-(6-fluorobenzo[d]thiazol-5-yl)picolinate] | 0 to 29 | 0 to 29 | 0 to 29 | 0 to 29 | 0 to 29 | 0 to 29 | 0 to 29 | 0 to 29 | 0 to 29 | 0 to 29 | 0 to 29 | 75 to 84 | 0 to 29 | 0 to 29 | 0 to 29 | – | – | – | – | – | – |
| COC(=O)c1nc(-c2ccc(OC(F)F)cc2)c(F)cc1Cl [F165, Methyl 3-chloro-6-(4-(difluoromethoxy)phenyl)-5-fluoropicolinate] | 60 to 74 | 75 to 84 | 30 to 44 | 0 to 29 | 75 to 84 | 85 to 94 | 0 to 29 | 0 to 29 | – | – | – | – | – | – | – | 0 to 29 | 85 to 94 | 0 to 29 | 45 to 59 | 60 to 74 | pest or weed control at 140 g/ha [21]: 0 to 29%; pest or weed control at 140 g/ha [22]: 75 to 84% |
| COC(=O)c1nc(-c2ccc3c(c2)OC(F)(F)O3)ccc1Cl [F64, Methyl 3-chloro-6-(2,2-difluorobenzo[d] [1,3]dioxol-5-yl) picolinate] | 0 to 29 | 95 to 100 | 0 to 29 | 0 to 29 | 0 to 29 | 60 to 74 | 0 to 29 | 0 to 29 | – | – | – | – | – | – | – | 0 to 29 | 45 to 59 | 0 to 29 | 60 to 74 | 0 to 29 | pest or weed control at 140 g/ha [21]: 60 to 74%; pest or weed control at 140 g/ha [22]: 85 to 94% |
| COC(=O)c1nc(-c2cc(Cl)c(C(F)(F)F)cc2C)c(F)cc1Cl [F370, Methyl 3-chloro-6-(5-chloro-2-methyl-4-(trifluoromethyl)phenyl)-5-fluoropicolinate] | 0 to 29 | 95 to 100 | 0 to 29 | 0 to 29 | 60 to 74 | 85 to 94 | 0 to 29 | 0 to 29 | 0 to 29 | 75 to 84 | 45 to 59 | 45 to 59 | 85 to 94 | 0 to 29 | 0 to 29 | – | – | – | – | – | – |

From patent publication US20230017045A1, “PYRIDINE AND PYRIMIDINE CARBOXYLATE HERBICIDES AND METHODS OF USE THEREOF” (Dow AgroSciences LLC, priority 2017, published 2023)
